Results published in patent US8557864B2, “Agent having neurotrophic factor-like activity” (Nagoya Industrial Science Research Institute, priority 2007, dated 2013).

Legend:
[1] = tested on: mice under chronic mild stress; test: Elevated plus maze test, compound given at the same time as stress; format: in vivo; settings: 20, 100 and 500 μg/kg intraperitoneally with stress, 3 week and 1 week groups
Procedure: Mice under established chronic mild stress (hereinafter referred to as “stress”) were used for a depression and anxiety disorder-like model animal. Stress was applied as follows. 7-week-old male ddY strain mice fed in one cage for 4 mice were used and first subjected to forced swimming for 15 minutes. Then, the mice were fed in a sloped cage for 2 days, and then rested in a normal cage for 1 day. Then, the mice were fed in a dirt cage moisturized with 200 mL of water for 1 day and then rested in a normal cage for 1 day. Then, the mice were fed in a rotational cage that rotated at 180 rpm for 1 day, and then rested in a normal cage for 1 day. […] For 0 μg/kg administration examples of controls, a phosphoric acid buffer containing 0.1% DMSO (controls were expressed as “PBS” or “0 μg/kg” in the figure shown below) was administered in an amount of 0.25 mL to each of a stressed example and a non-stressed example. […]
In this test, an anxiety level can be evaluated from the time for being the open arm, and a behavior amount can be evaluated from the number of times of entering the closed arm. From the evaluations, when a mouse has an anxiety symptom (condition), the time for being in the open arm […], and thus, a level of the anxiety symptom (condition) can be evaluated from the length of the time. […]

[2] = tested on: mRNAs of BDNF, NT-3, NGF and GR; test: mRNA expression of neurotrophic factors and glucocorticoid receptor in cortex of frontal lobe and hippocampus; format: in vivo, mice; settings: 24 hours after 3 weeks of stress with compound 8, RT-PCR relative to β actin
Procedure: mRNA expressions of a brain-derived neurotrophic factor (hereinafter expressed as “BDNF”), neurotrophin-3 (hereinafter expressed as “NT-3”), a nervous growth factor (hereinafter expressed as “NGF”) and a glucocorticoid receptor (hereinafter expressed as “GR”) in a cortex of frontal lobe and a hippocampus of a mouse after stress were examined as follows. After 24 hours from completion of stress for 3 weeks in the same method as described in Example 2, mice administered with the compound 8 in each of the amounts of 0, 20, 100 and 500 μg/kg, at the same time as stress, and non-stressed mice administered with only a phosphoric acid buffer containing 0.1% DMSO were sacrificed and the cortexes of frontal lobes and hippocampi were excised respectively, and thereto were added TriZol. […]
The obtained precipitate was washed with 70% ethanol, dried and then dissolved in TE to form a total RNA sample. […] The fluorescence intensity of the band was read with a densitometer to digitalize and the obtained value was divided with a fluorescence intensity of a band of RT-PCR of β actin mRNA of an internal standard, which has been found separately, and a graph was formed assuming that the band value of a non-stressed mouse/β actin band value was 1.0. […]

mice = test: Novel object recognition test on mice; format: in vivo; settings: 100 and 500 μg/kg intraperitoneally, healthy mice, test started after 2 hours
Procedure: A promotion activity of brain functions due to the compound 8 was examined using a novel object recognition test. The novel object recognition test is a method of evaluating memory and learning abilities from behaviors after showing a “familiar object” and a “novel object” to mice, utilizing the fact that the mice take exploration behaviors (behaviors such as coming closer to or smelling an object) when they find the “novel object”.
The compound 8 was dissolved in 0.1% DMSO to adjust a concentration so as to have each dose of 100 and 500 μg/kg and intraperitoneally injected to 6 mice in every administration example each in a dose of 0.25 mL. In a 0 μg/kg weight administration example of a control, 0.25 mL of a phosphoric acid buffer containing 0.1% DMSO was intraperitoneally injected. The compound 8 was administered to mice and the novel object recognition test was performed after 2 hours. That is, a mouse was put in a place where two identical objects were present for 15 minutes to let the mouse memorize the two objects (these two objects will be “familiar objects”). After the elapse of 1 day, an exploration behavior test in which the mouse was put in a place where the “familiar objects and “novel objects” were present was carried out for 10 minutes FIG. 33 show the results. Significance tests were performed in a Student's t-test (*) and a Turkey's test (##). […]

CCCCCCC/C=C/C(=O)OCC [Compound 8, trans-2-decenoic acid ethyl ester]
time for being in open arm, stressed vs non-stressed example [1]: no significant difference
number of times of entering closed arm (behavior amount) ([1]; vs control (PBS) and stressed vs non-stressed): no significant difference
expression of mRNAs of BDNF, NT-3, NGF and GR [2]: returned to the level of non-stressed examples
recognition index of novel objects (mice): became high
